Data: PubChem BioAssay AID192 (DTP/NCI, 2004)
“And” between values parts separate entries of the source, which are not always exact repeats. Equal entries are not always repeated. Inconclusive results and toxic doses are left out.

Tested on: BDF1 mice, B16 melanoma ip, median survival T/C
Assay: NCI In Vivo Anticancer Drug Screen. Data for tumor model B16 Melanoma (intraperitoneal) in B6D2F1 (BDF1) mice
Details: endpoint: median survival time, higher = longer survival
How it was run: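 Each result divides a survival or tumor-size measurement in the compound-treated group by the same measurement in the vehicle group.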

[1] = dose: 12.5 mg/kg/injection, schedule: Q01DX009 (ip), vehicle: Klucel (hydroxypropylcellulose) (HPC)
[2] = dose: 25.0 mg/kg/injection, schedule: Q01DX009 (ip), vehicle: Klucel (hydroxypropylcellulose) (HPC)
[3] = dose: 50.0 mg/kg/injection, schedule: Q01DX009 (ip), vehicle: Klucel (hydroxypropylcellulose) (HPC)
[4] = dose: 1.56 mg/kg/injection, schedule: Q01DX009 (ip), vehicle: Klucel (hydroxypropylcellulose) (HPC)
[5] = dose: 3.12 mg/kg/injection, schedule: Q01DX009 (ip), vehicle: Klucel (hydroxypropylcellulose) (HPC)
[6] = dose: 6.25 mg/kg/injection, schedule: Q01DX009 (ip), vehicle: Klucel (hydroxypropylcellulose) (HPC)
[7] = dose: 100.0 mg/kg/injection, schedule: Q01DX009 (ip), vehicle: Klucel (hydroxypropylcellulose) (HPC)
[8] = dose: 100.0 mg/kg/injection, schedule: Q04DX003 (ip), vehicle: Klucel (hydroxypropylcellulose) (HPC)
[9] = dose: 200.0 mg/kg/injection, schedule: Q01DX009 (ip), vehicle: Klucel (hydroxypropylcellulose) (HPC)
[10] = dose: 200.0 mg/kg/injection, schedule: Q04DX003 (ip), vehicle: Klucel (hydroxypropylcellulose) (HPC)
[11] = dose: 400.0 mg/kg/injection, schedule: Q01DX009 (ip), vehicle: Klucel (hydroxypropylcellulose) (HPC)
[12] = dose: 400.0 mg/kg/injection, schedule: Q04DX003 (ip), vehicle: Klucel (hydroxypropylcellulose) (HPC)
[13] = dose: 12.5 mg/kg/injection, schedule: Q01DX009 (ip), vehicle: saline with Tween-80
[14] = dose: 25.0 mg/kg/injection, schedule: Q01DX009 (ip), vehicle: saline with Tween-80
[15] = dose: 25.0 mg/kg/injection, schedule: Q01DX009 (ip), vehicle: saline

CCCCCCCCCCCC(=O)N(CCCC)CCCC
T/C (dose: 37.5 mg/kg/injection, schedule: Q01DX009 (ip), vehicle: Klucel (hydroxypropylcellulose) (HPC)): 101 % of control | T/C (dose: 75.0 mg/kg/injection, schedule: Q01DX009 (ip), vehicle: Klucel (hydroxypropylcellulose) (HPC)): 101 % of control | T/C (dose: 150.0 mg/kg/injection, schedule: Q01DX009 (ip), vehicle: Klucel (hydroxypropylcellulose) (HPC)): 97 % of control

COc1ccc(C2c3cc4c(c(OC)c3CC3OCC(=O)C32)OCO4)cc1OC (configuration not stated)
T/C [1]: 102 % of control | T/C [2]: 102 % of control | T/C [3]: 117 % of control

Nc1ccccc1SC1CC(=O)N(c2cccc3ccccc23)C1=O (configuration not stated)
T/C [4]: 98 % of control | T/C [5]: 96 % of control | T/C [6]: 88 % of control and 94 % of control | T/C [1]: 86 % of control | T/C [7]: 94 % of control and 96 % of control | T/C [8]: 100 % of control | T/C [9]: 92 % of control | T/C [10]: 100 % of control | T/C [11]: 92 % of control | T/C [12]: 93 % of control

Ic1ncnc2c1ncn2C1CCCO1 (configuration not stated)
T/C [7]: 118 % of control | T/C [9]: 104 % of control

CC(CN(C)C)CN1c2ccccc2Sc2ccccc21 (configuration not stated)
T/C [13]: 104 % of control | T/C [14]: 101 % of control

c1ccc(N/N=C2/CCN3CCCc4cccc2c43)cc1
T/C (dose: 25.0 micrograms/kg/injection, schedule: Q01DX009 (ip), vehicle: DMSO): 86 % of control

CCCC[P+](c1ccccc1)(c1ccccc1)c1ccccc1
T/C (dose: 6.25 mg/kg/injection, schedule: Q01DX009 (ip), vehicle: saline): 90 % of control | T/C [15]: 95 % of control

CCCCC(CCCC)(C(N)=O)C(=O)OCC
T/C [7]: 106 % of control | T/C [9]: 100 % of control | T/C [11]: 103 % of control

CCCCCCCCCCCCNC(=O)Nc1cccc(C)c1C
T/C [7]: 100 % of control | T/C [9]: 100 % of control | T/C [11]: 96 % of control

Nc1cc(Cl)cc(Cl)c1C(=O)O
T/C (dose: 50.0 mg/kg/injection, schedule: Q04DX003 (ip), vehicle: other): 102 % of control | T/C (dose: 100.0 mg/kg/injection, schedule: Q04DX003 (ip), vehicle: other): 100 % of control | T/C (dose: 200.0 mg/kg/injection, schedule: Q04DX003 (ip), vehicle: other): 102 % of control

CC(C)Oc1ccc2c(c1)N(CCC1CCCCN1)c1ccccc1S2 (configuration not stated)
T/C [4]: 97 % of control | T/C [5]: 98 % of control | T/C [6]: 112 % of control | T/C [1]: 91 % of control | T/C [2]: 86 % of control

Cc1cc(OC(=O)c2ccc(N(C)C)cc2)ccc1[N+](=O)[O-]
T/C [2]: 92 % of control | T/C [3]: 92 % of control | T/C [7]: 88 % of control

O=S(=O)(O)O.[NH-]C1CCCCC1[NH-].[Pt+2] (configuration not stated)
T/C (dose: 0.32 mg/kg/injection, schedule: Q01DX009 (ip), vehicle: water): 156 % of control and 167 % of control | T/C (dose: 0.63 mg/kg/injection, schedule: Q01DX009 (ip), vehicle: dextrose): 175 % of control | T/C (dose: 0.63 mg/kg/injection, schedule: Q04DX003 (ip), vehicle: water): 160 % of control | T/C (dose: 1.25 mg/kg/injection, schedule: Q01DX009 (ip), vehicle: dextrose): 163 % of control | T/C (dose: 1.25 mg/kg/injection, schedule: Q04DX003 (ip), vehicle: water): 163 % of control | T/C (dose: 3.0 mg/kg/injection, schedule: Q01DX009 (ip), vehicle: water): 150 % of control | T/C (dose: 4.0 mg/kg/injection, schedule: Q01DX009 (ip), vehicle: water): 150 % of control | T/C (dose: 5.0 mg/kg/injection, schedule: Q04DX003 (ip), vehicle: water): 155 % of control

CC(=O)[C@H]1CC[C@H]2[C@@H]3CCC4=CC(=O)CC[C@]4(C)[C@H]3CC[C@]12C
T/C (dose: 12.5 mg/kg/injection, schedule: Q02DX009 (ip), vehicle: Klucel (hydroxypropylcellulose) (HPC)): 104 % of control | T/C (dose: 25.0 mg/kg/injection, schedule: Q02DX009 (ip), vehicle: Klucel (hydroxypropylcellulose) (HPC)): 96 % of control | T/C (dose: 50.0 mg/kg/injection, schedule: Q02DX009 (ip), vehicle: Klucel (hydroxypropylcellulose) (HPC)): 100 % of control | T/C (dose: 100.0 mg/kg/injection, schedule: Q02DX009 (ip), vehicle: Klucel (hydroxypropylcellulose) (HPC)): 91 % of control | T/C (dose: 200.0 mg/kg/injection, schedule: Q02DX009 (ip), vehicle: Klucel (hydroxypropylcellulose) (HPC)): 120 % of control | T/C (dose: 400.0 mg/kg/injection, schedule: Q02DX009 (ip), vehicle: Klucel (hydroxypropylcellulose) (HPC)): 104 % of control

Nc1c(S(=O)(=O)O)cc(Nc2ccccc2)c2c1C(=O)c1ccccc1C2=O
T/C [15]: 121 % of control | T/C (dose: 50.0 mg/kg/injection, schedule: Q01DX009 (ip), vehicle: saline): 115 % of control | T/C (dose: 100.0 mg/kg/injection, schedule: Q01DX009 (ip), vehicle: saline): 115 % of control

C1CC[N-]CC1.C1CC[N-]CC1.O=C(O)C(=O)O.[Pt+2]
T/C (dose: 6.25 mg/kg/injection, schedule: Q04DX003 (ip), vehicle: Klucel (hydroxypropylcellulose) (HPC)): 100 % of control | T/C (dose: 12.5 mg/kg/injection, schedule: Q04DX003 (ip), vehicle: Klucel (hydroxypropylcellulose) (HPC)): 120 % of control | T/C (dose: 25.0 mg/kg/injection, schedule: Q04DX003 (ip), vehicle: Klucel (hydroxypropylcellulose) (HPC)): 119 % of control | T/C (dose: 50.0 mg/kg/injection, schedule: Q04DX003 (ip), vehicle: Klucel (hydroxypropylcellulose) (HPC)): 115 % of control | T/C [8]: 113 % of control

CC1CCCC(C)N1NC1=NCCO1 (configuration not stated)
T/C [13]: 97 % of control | T/C [14]: 102 % of control | T/C (dose: 50.0 mg/kg/injection, schedule: Q01DX009 (ip), vehicle: saline with Tween-80): 97 % of control

OCc1cc2c([nH]c3ccccc32)c(C(O)CO)n1 (configuration not stated)
T/C (dose: 20.0 mg/kg/injection, schedule: Q01DX009 (ip), vehicle: saline with Tween-80): 102 % of control | T/C (dose: 40.0 mg/kg/injection, schedule: Q01DX009 (ip), vehicle: saline with Tween-80): 99 % of control | T/C (dose: 80.0 mg/kg/injection, schedule: Q01DX009 (ip), vehicle: saline with Tween-80): 97 % of control

CC(=O)OCc1cc(=O)n(C)c2c3c4c(cc12)c(C)cc(=O)n4CO3
T/C [6]: 122 % of control | T/C [1]: 120 % of control | T/C [2]: 121 % of control

CCCCCCC(=O)CCCC
T/C (dose: 100.0 mg/kg/injection, schedule: Q01DX009 (ip), vehicle: other): 98 % of control | T/C (dose: 200.0 mg/kg/injection, schedule: Q01DX009 (ip), vehicle: other): 100 % of control

Cc1n(Cc2ccccc2)c2c([n+]1C)C(=O)c1ccccc1C2=O
T/C (dose: 0.13 mg/kg/injection, schedule: Q01DX009 (ip), vehicle: saline): 95 % of control | T/C (dose: 0.25 mg/kg/injection, schedule: Q01DX009 (ip), vehicle: saline): 95 % of control | T/C (dose: 0.5 mg/kg/injection, schedule: Q01DX009 (ip), vehicle: saline): 95 % of control | T/C (dose: 1.0 mg/kg/injection, schedule: Q01DX009 (ip), vehicle: saline): 87 % of control

C1=C(c2ccccc2)CCCC1
T/C [8]: 90 % of control | T/C [10]: 93 % of control | T/C [12]: 103 % of control

O=C(CCCCC(=O)Nc1ccc(C2=NCCN2)cc1)Nc1ccc(C2=NCCN2)cc1
T/C (dose: 50.0 mg/kg/injection, schedule: Q04DX003 (ip), vehicle: saline): 96 % of control | T/C (dose: 100.0 mg/kg/injection, schedule: Q04DX003 (ip), vehicle: saline): 93 % of control | T/C (dose: 200.0 mg/kg/injection, schedule: Q04DX003 (ip), vehicle: saline): 90 % of control | T/C (dose: 400.0 mg/kg/injection, schedule: Q04DX003 (ip), vehicle: saline): 86 % of control

CC(=O)CC(=O)N1CCCC(C)C1 (configuration not stated)
T/C [7]: 116 % of control | T/C [9]: 109 % of control | T/C [11]: 110 % of control

Cc1cc(N)c2cc(NC(=O)CCCCCCCCC(=O)Nc3ccc4nc(C)cc(N)c4c3)ccc2n1
T/C [5]: 89 % of control | T/C [6]: 87 % of control and 91 % of control | T/C [1]: 100 % of control | T/C [2]: 95 % of control and 107 % of control | T/C [3]: 95 % of control and 99 % of control

NC(=O)C(N)=O
T/C [7]: 103 % of control | T/C [9]: 96 % of control

CN(C)c1ccc(/C=C/c2cc[n+](C)cc2)cc1
T/C (dose: 1.32 mg/kg/injection, schedule: Q04DX003 (ip), vehicle: saline with Tween-80): 95 % of control | T/C (dose: 4.0 mg/kg/injection, schedule: Q04DX003 (ip), vehicle: saline with Tween-80): 150 % of control | T/C (dose: 8.0 mg/kg/injection, schedule: Q04DX003 (ip), vehicle: saline with Tween-80): 117 % of control
